Series [1] relates to PANK2 silenced human neuroblastoma IMR32 cells (PANK2−/−). In words: Coenzyme A assay in PANK2 silenced cells (LC-MS quantification of free CoA). The note with it: compound added twice (24 h + 24 h), relative to 0.1% DMSO controls. It counts as cell-based. An outline of the steps:
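Free intracellular CoA was measured by positive-mode LC-MS/MS of 20% TFA extracts, taking 2 μl per 10^6 cells as intracellular volume. Cells were IMR32 with stable lentiviral PANK2 knockdown, dosed twice 24 h apart (48 h total, 0.1% DMSO). Output is fold increase over vehicle.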

Series [2] is described as follows: Stability in mouse plasma. Format: in vitro ADME. As to conditions: 3 μM, 37° C., mouse plasma. An outline of the steps: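 Test compound at 3 μM (0.1% DMSO) was incubated in mouse or human plasma at 37 °C and sampled in duplicate at 0, 10, 20, 30, 40 and 60 min. Reactions were stopped with acetonitrile/formic acid containing internal standard. Remaining parent was measured by UPLC-MS/MS without a calibration curve.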

The nature of series [3]: physchem. The note with it: buffer, phosphate buffered saline, 10 mM phosphate buffer pH 7.5, 37° C.
Protocol: To measure chemical stability in aqueous solution, the half-life (t1/2), or time needed for the concentration to decrease by half, was determined for select compounds in phosphate buffered saline solution. Compounds were dissolved in a solution containing 10 mM phosphate buffer (pH 7.5) and 5% of D2O to a final concentration of −1 mM. All spectra were obtained at 37° C. on a Bruker Avance 600 NMR spectrometer equipped with an inverse broad-band probe with z-gradients. Data were obtained every 15 min for a total time period of 4 h or longer, according to the observed stability. ^31P NMR was performed at 242.55 MHz, with gated decoupling of the protons. An observation frequency range of 14619.9 Hz and 32 K complex data points were used for acquisition. A pulse angle of 90° and a 4-sec pulse cycle were utilized. Thirty-two accumulations were obtained before Fourier transformation of the free induction decay. ^1H NMR spectra were acquired using the 1DNOESY experiment with water presaturation for better solvent suppression. An observation frequency range of 12019.23 Hz, a 10-sec pulse cycle, and 32 K complex data points were used for acquisition. Sixty-four scans were added prior to Fourier transformation. Integral data were obtained using the TopSpin software.
Stability was determined based on analysis of disappearance of the compounds as a function of incubation time. Quantification of test compounds was measured as a peak area relative to an internal standard. The elimination constant, k, was calculated by plotting mean disappearance values on a semi-logarithmic scale and fitting with a best fit linear regression. The half-life (t1/2) expressed in hours was derived using Equation 1: t1/2=ln2/(−k). Equation 1:

The structures appear in SMILES notation. Bounds are passed on as bounds.

Consider `COC(=O)CCNC(=O)[C@@H]1OP(=O)(N[C@H](C)C(=O)OC)OCC1(C)C` (stereo partly drawn) [compound 16, methyl 3-((4R)-2-(((R)-1-methoxy-1-oxopropan-2-yl)amino)-5,5-dimethyl-2-oxido-1,3,2-dioxaphosphinane-4-carboxamido)propanoate], for which, in series [1], the “PANK2−/− CoA (Fold Increase): fold increase in Coenzyme A (CoA) levels relative to controls” value is given as 1.21 Fold Increase. Further, in series [2] (Diastereoisomer A (upfield shift in 31P NMR), read-out: t1/2, Mouse Plasma, Diastereoisomer A), the half-life at 3 µM was under 9.6 min. Further, the “t1/2, Mouse Plasma, Diastereoisomer B” value in series [2] (Diastereoisomer B) was under 9.6 min. The half-life in series [3] (pH 7.5, t1/2 (h) Diastereoisomer A, Diastereoisomer A = upfield shift in the 31P NMR) was over 80 h; in series [3] (pH 7.5, t1/2 (h) Diastereoisomer B, Diastereoisomer B) it was over 80 h.

Source of the values: patent US10364263B2, “Cyclic phosphates and cyclic phosphoramidates for the treatment of neurologic disorders” (Retrophin, Inc., priority 2015, dated 2019).
